Earlier results in patent US20150133416A1, “Pharmaceutical Composition Comprising Abiraterone Acetate” (Jagotec AG, priority 2012, published 2015).
Where two headings read alike, the source gives them in different places.

Tests used:
[1] = not given; remark: listed apart in the source
[2] = 20 mg delayed release capsules administered with apple sauce

| aqueous solubility | log P | AUC elevation compared with the fasted state ([1]; after a high fat meal) [fold] | Cmax elevation compared with the fasted state ([1]; after a high fat meal) [fold] | AUC elevation compared with the fasted state ([1]; after a low fat meal) [fold] | Cmax elevation compared with the fasted state ([1]; after a low fat meal) [fold] | reduction in Cmax [2] [%] | SMILES |
| --- | --- | --- | --- | --- | --- | --- | --- |
| poor | very high | 10 | 17 | 5 | 7 |  | C[C@]12CC[C@H](O)CC1=CC[C@@H]1[C@@H]2CC[C@]2(C)C(c3cccnc3)=CC[C@@H]12 [abiraterone] |
|  |  |  |  |  |  | 25 | COc1ccc2[nH]c([S+]([O-])Cc3ncc(C)c(OC)c3C)nc2c1 (stereo not shown) [omeprazole] |
